US7547718B2, “Substituted imidazoles” (Pfizer Limited, priority 2006, dated 2009)

These compounds were tested on Rhipicephalus sanguineus (brown dog tick) (assay: In vitro tick assay (Rhip. Funct.)). Details: unfed R. sanguineus in precoated glass vials; lowest dose at which all five ticks were seen moving; observed at 24, 48 and 72 hours.
From the text: Application of octopamine agonists to acarids for example, ticks, causes distinct behavioural changes compared to untreated control ticks. Treated ticks become agitated and move constantly, this prevents ticks attaching and feeding on a host animal to which the compound has been applied. Normal behaviour of ticks is to go into stasis when all other external stimuli are removed. Agitation and movement can be measured in vitro in the laboratory to predict efficacy and potency in vivo.
The assay was run using unfed Rhipicephalus sanguineus (brown dog tick) and precoated glass vials with an inner surface area of 34.5 cm^2. Each compound was tested in duplicate.
Compound (345 μg) was dissolved in isopropyl alcohol (500 μl) and delivered to each vial. The vials were placed on a tilting roller in a fume hood for 2 hours to allow the isopropyl alcohol to evaporate giving a compound concentration for each vial of 10 μg/cm^2. Five R. sanguineus (male and female) were added to each coated vial and the vial sealed with a firm wad of cotton wool. Vials were then kept, undisturbed, on the bench at room temperature. Observation and recordings of activity were taken at 24, 48 and 72 hours after addition of ticks to the vials. The ED100 value was determined as the lowest dose at which all five ticks were seen moving around inside the vial.

SMILES	Rhip. Funct. ED100
Cc1cccc(C(C)c2nccn2COC(=O)OC2CCC2)c1C (centres unmarked) [Example 141, Cyclobutyl{2-[1-(2,3-dimethylphenyl)ethyl]-1H-imidazol-1-yl}methyl carbonate]	0.03 mg/cm^2
Cc1cccc([C@H](C)c2nccn2C(=O)OCc2c(C)c(C)c(C)c(C)c2C)c1C [Example 294, Pentamethylbenzyl 2-[(1S)-1-(2,3-dimethylphenyl)ethyl]-1H -imidazole-1-carboxylate]	>0.03 mg/cm^2
Cc1cccc([C@H](C)c2nccn2C(=O)OCc2c(F)c(F)c(F)c(F)c2F)c1C [Example 270, Pentafluorobenzyl 2-[(1S)-1-(2,3-dimethylphenyl)ethyl]-1H -imidazole-1-carboxylate]	<=10 mg/cm^2
Cc1cccc(C(C)c2nccn2COC(=O)OCCC(C)C)c1C (centres unmarked) [Example 139, {2-[1-(2,3-Dimethylphenyl)ethyl]-1H-imidazol-1-yl}methyl 3-methyl butyl carbonate]	<=0.03 mg/cm^2
CCC(CC)COC(=O)n1ccnc1[C@@H](C)c1cccc(C)c1C [Example 233, 2-Ethyl butyl 2-[(1S)-1-(2,3-dimethylphenyl)ethyl]-1H-imidazole-1-carboxylate]	<=10 mg/cm^2
Cc1cccc(C(C)c2nccn2COC(=O)CC(C)C)c1C (centres unmarked) [Example 68, {2-[1-(2,3-Dimethylphenyl)ethyl]-1H-imidazol-1-yl}methyl 3-methyl butanoate]	0.03 mg/cm^2
CCC(C)C(C)COC(=O)n1ccnc1[C@@H](C)c1cccc(C)c1C (stereo partly drawn) [Example 253, 2,3-Dimethyl pentyl 2-[(1S)-1-(2,3-dimethylphenyl)ethyl]-1H-imidazole-1-carboxylate]	0.1 mg/cm^2
Cc1cccc(C(C)c2nccn2COC(=O)NCCc2ccc(Cl)cc2Cl)c1C (centres unmarked) [Example 148, {2-[1-(2,3-Dimethylphenyl)ethyl]-1H-imidazol-1-yl}methyl[2-(2,4-dichlorophenyl)ethyl]carbamate]	>1 mg/cm^2
